Converted amounts (≈) assume the structure as drawn.
Assays:
[1] = tested on: A. baumannii ATCC BAA-1605; format: cell-based; details: checkerboard
Experimental: (§1) For the synergy test, standard checkerboard broth microdilution assays were conducted to test the synergistic effect of combined antimicrobials using the same condition as before[51],[56]. […] The initial concentration of both peptides was their individual MIC. 50 µL fresh bacterial suspension prepared as above was added to the wells already containing the antimicrobial compound mixture to achieve 100 µL final volume per well.
(§2) The fractional inhibitory concentration (FIC) indices[57] were calculated using the formula FICI = FICa + FICb = MICac/MICa + MICbc/MICb, to determine whether the combination is additive, synergistic or antagonistic[51],[57]. The MICa and MICb is the MIC of compound A or B alone, respectively. MICac is the MIC of compound A in combination with compound B and MICbc is the MIC of compound B when it was combined with compound A. The FIC corresponds to the MIC of a compound in combination with the other compound, divided by the MIC of the compound alone. FICa is FIC of compound A while FICb is FIC of compound B. The FICI was interpreted according to EUCAST[58] as follows: synergistic, FICI ≤ 0.5; additive,0.5 < FICI ≤ 1; indifferent, 1 < FICI < 2; antagonistic, FICI ≥ 2.

A. baumannii B2026 = format: cell-based; details: checkerboard
Experimental: as §1, §2

P. aeruginosa ATCC 27853 = format: cell-based; details: checkerboard
Experimental: as §1, §2

E. coli ATCC BAA-2452 = format: cell-based; details: checkerboard
Experimental: as §1, §2

E. coli B1927 = format: cell-based; details: checkerboard
Experimental: as §1, §2

[2] = tested on: K. pneumoniae ATCC BAA-2524; format: cell-based; details: checkerboard
Experimental: as §1, §2

K. pneumoniae B1945 = format: cell-based; details: checkerboard
Experimental: as §1, §2

E. coli ATCC 25922 = format: cell-based; details: checkerboard
Experimental: as §1, §2

A. baumannii ATCC 17978 = format: cell-based; details: checkerboard
Experimental: as §1, §2

[3] = tested on: P. aeruginosa ATCC BAA-2108; format: cell-based; details: checkerboard
Experimental: as §1, §2

P. aeruginosa PA14 = format: cell-based; details: checkerboard
Experimental: as §1, §2

P. aeruginosa B1954 = format: cell-based; details: checkerboard
Experimental: as §1, §2

[4] = tested on: all the Gram-negative strains tested; assay: organism not typed
Experimental: MIC tests were performed in triplicate by liquid growth inhibition microdilution assays in sterile polypropylene microtiter plates according to the Clinical and Laboratory Standards Institute (CLSI) guideline for bacteria that grow aerobically. Briefly, the indicator strains were first streaked on the appropriate agar plate, and then single colonies were picked and incubated overnight in liquid broth. The final inoculum of bacteria was 5*10^5 CFU/mL prepared in CAMHB (cationic adjusted Mueller–Hinton broth, Sigma-Aldrich) or CAMHB plus 5% of lysed horse blood (TCS Biosciences, Buckingham, UK) in the case of S. pneumoniae. The antimicrobials were 2-fold serially diluted and 50 µL diluted bacterial suspension was added to each well to make the final volume 100 µL. The microtiter plates and the count plates were incubated at 37 °C for 16–20 h without shaking. Growth inhibition was assessed by measuring the OD600 using a microplate reader (Tecan Infinity F200). The lowest concentration of the antimicrobials that inhibits visible growth of the indicator strain is identified as the MIC value.
(§3) The condition for the tests and the analysis of the plates were performed as described above for the MIC tests.
Hemolytic activity was determined with fresh human red blood cells (hRBCs)[28]. The hRBCs were centrifuged (1000×g, 5 min) and the supernatant was discarded. The pellets were washed three times with PBS and diluted in PBS to make the cell stock solution with a cell density of 2*10^8 cells/mL. […] 1% Triton X-100 and PBS were used as controls. […] The supernatant was transferred to a new 96-well plate and hemolysis was monitored by measuring the absorbance at 450 nm (OD450). Hemolysis levels were calculated as percentage. % hemolysis = 100 × (As−A0)/(At−A0), where As, A0, and At are the absorbance of the hRBCs suspension in PBS with antimicrobial agents (As), without antimicrobial agents (A0), and with 1% Triton X-100 (At). […] For the TI calculation (TI = MHC/GM), other factors as the GM (geometric mean of MIC value of all the Gram-negative strains tested) were calculated.

[5] = tested on: human red blood cells (hRBCs); assay: Hemolytic activity
Experimental: Hemolytic activity was determined with fresh human red blood cells (hRBCs)[28]. The hRBCs were centrifuged (1000×g, 5 min) and the supernatant was discarded. The pellets were washed three times with PBS and diluted in PBS to make the cell stock solution with a cell density of 2*10^8 cells/mL. […] 1% Triton X-100 and PBS were used as controls. The cells were incubated at 37 °C for 1 h and centrifuged at 2000 rpm for 5 min. The supernatant was transferred to a new 96-well plate and hemolysis was monitored by measuring the absorbance at 450 nm (OD450). Hemolysis levels were calculated as percentage. % hemolysis = 100 × (As−A0)/(At−A0), where As, A0, and At are the absorbance of the hRBCs suspension in PBS with antimicrobial agents (As), without antimicrobial agents (A0), and with 1% Triton X-100 (At). […] For the TI calculation (TI = MHC/GM), other factors as the GM (geometric mean of MIC value of all the Gram-negative strains tested) were calculated.

K. pneumoniae LMG 20218 = details: K. pneumoniae
Experimental: as §1, §2, §3

HEK-293 cells = assay: Cytotoxicity, cell viability (CellTiter-Glo); details: for Cell viability (% of control): HEK-293, CellTiter-Glo
Experimental: 96-well plates were seeded with HEK-293 cells at a concentration of 3*10^5 cells/well in 100 µL of DMEM growth medium supplemented with 1% NEAA and 10% FBS. Border wells were filled with 100 µL of sterile PBS. […] ATP levels were measured by adding 50 µL of CellTiter-Glo reagent (Promega, Madison, US) to each well, and luminescence was measured with a SpectraMax i3 microplate reader after 5 minutes of incubation. The potential effect of the tested compounds on cell viability was determined by comparing the signal obtained in the presence of different concentrations of the compounds with those obtained in the control wells. All these tests were performed in triplicate.

Compound: CN[C@H](CC(C)C)C(=O)N[C@H]1C(=O)N[C@@H](CC(N)=O)C(=O)N[C@H]2C(=O)N[C@H]3C(=O)N[C@H](C(=O)N[C@H](C(=O)O)c4cc(O)cc(O)c4-c4cc3ccc4O)[C@H](O)c3ccc(c(Cl)c3)Oc3cc2cc(c3O[C@@H]2O[C@H](CO)[C@@H](O)[C@H](O)[C@H]2O[C@H]2C[C@](C)(N)[C@H](O)[C@H](C)O2)Oc2ccc(cc2Cl)[C@H]1O [Vancomycin]
- MICAB: MIC of vancomycin in combination with D-11 at the MICAC concentration [1]: 2.76 µM
- MICAB: MIC of vancomycin in combination with D-11 at the MICAC concentration (A. baumannii B2026): 2.76 µM
- MICAB: MIC of vancomycin in combination with D-11 at the MICAC concentration (P. aeruginosa ATCC 27853): 11.04 µM
- MICAB: MIC of vancomycin in combination with D-11 at the MICAC concentration (E. coli ATCC BAA-2452): 2.76 µM
- MICAB: MIC of vancomycin in combination with D-11 at the MICAC concentration (E. coli B1927): 5.52 µM
- MICAB: MIC of vancomycin in combination with D-11 at the MICAC concentration [2]: 11.04 µM
- MICAB: MIC of vancomycin in combination with D-11 at the MICAC concentration (K. pneumoniae B1945): 11.04 µM
- MICAB: MIC of vancomycin in combination with D-11 at the MICAC concentration (E. coli ATCC 25922): 5.52 µM
- MICAB: MIC of vancomycin in combination with D-11 at the MICAC concentration (A. baumannii ATCC 17978): 5.52 µM
- MICAB: MIC of vancomycin in combination with D-11 at the MICAC concentration [3]: 44.15 µM
- MICAB: MIC of vancomycin in combination with D-11 at the MICAC concentration (P. aeruginosa PA14): 32 µM
- MICAB: MIC of vancomycin in combination with D-11 at the MICAC concentration (P. aeruginosa B1954): 44.15 µM
- increase of MIC against Gram-negative pathogens when LPS was in the medium ([4]; LPS 1 mg/mL, vancomycin: except against A. baumannii): 2 fold
- MIC ([4]; read-out: GM, MIC geometric mean against all the Gram-negative strains tested): 87.7 µM (≈ 127 µg/mL)
- HC50, concentration that causes 50% hemolysis of hRBCs [5]: > 500 µM
- MHA, mean hemolytic activity [5]: 0%
- MHC, minimal hemolytic concentration that caused 10% hemolysis of hRBCs [5]: 1000 µM
- hemolysis of hRBCs [5]: did not cause any hemolysis
- vancomycin concentration needed in combination with D-11 (K. pneumoniae LMG 20218; checkerboard after the addition of excess LPS (1.0 mg/mL)): at least 32 µM
- vancomycin concentration inhibiting growth in combination with 1 µM D-11 (K. pneumoniae LMG 20218; checkerboard without the addition of LPS): 2 µM
- Cell viability (% of control) (HEK-293 cells; 22 µM (22/22 µM for the combination), replicate 1): 96 % of control
- Cell viability (% of control) (HEK-293 cells; 22 µM (22/22 µM for the combination), replicate 2): 107 % of control
- Cell viability (% of control) (HEK-293 cells; 22 µM (22/22 µM for the combination), replicate 3): 113 % of control
- Cell viability (% of control) (HEK-293 cells; 44 µM (44/44 µM for the combination), replicate 1): 110 % of control
- Cell viability (% of control) (HEK-293 cells; 44 µM (44/44 µM for the combination), replicate 2): 102 % of control
- Cell viability (% of control) (HEK-293 cells; 44 µM (44/44 µM for the combination), replicate 3): 114 % of control
- Cell viability (% of control) (HEK-293 cells; 88 µM (88/88 µM for the combination), replicate 1): 103 % of control
- Cell viability (% of control) (HEK-293 cells; 88 µM (88/88 µM for the combination), replicate 3): 114 % of control
- effect on viability of HEK-293 cells (HEK-293 cells; all the concentrations tested (up to 88 µM)): did not affect the viability

— article PMC7782785, “Outer-membrane-acting peptides and lipid II-targeting antibiotics cooperatively kill Gram-negative pathogens” (Communications Biology, 2021)
